Where a name gives a salt, the structure may show the parent alone. Read-outs that look alike come from different tables or passages of the source.
What was measured:
[1] = system: Pseudomonas aeruginosa (X11045); assay: Checkerboard MIC / synergy determination (FIC, CI) against Pseudomonas aeruginosa; type: cell-based; conditions: for MIC tetracycline (μg/ml) (combination) / CI value / synergy with diminazene (in words) / FIC tetracycline compound / FIC tetracycline / MIC tetracycline / MIC tetracycline compound / MIC / FIC dibromopropamidine / MIC diminazene (μg/ml) (combination) / MIC dibromopropamidine (μg/ml) (combination): P. aeruginosa; for CI value: CI < 1 = synergy; for synergy with diminazene (in words): combination with diminazene, Table 2; for FIC tetracycline compound: in combination with dibromopropamidine; for FIC tetracycline: in combination with diminazene; for MIC: Pseudomonas aeruginosa; for synergy with dibromopropamidine (in words): combination with dibromopropamidine, inhibition of P. aeruginosa, Table 3
Method: In microbiology, minimum inhibitory concentration (MIC) is the lowest concentration of an antibacterial that will inhibit the visible growth of a microorganism after overnight incubation. Minimum inhibitory concentrations are important in diagnostic laboratories to confirm resistance of microorganisms to an antimicrobial agent and also to monitor the activity of new antimicrobial agents. The MIC can be determined using standard methods, for example as described in Andrews, J. Antimicrobial Chemotherapy, 48, 2001, Suppl. S1, 5-16. Typically, MIC is determined using 96-well plates, and serial two-fold dilutions of the antibacterial agent in a culture medium containing the bacteria with an approximate concentration of 10^3 cells per well. Plates are incubated at 37° C. for 18 to 24 hours. Optical density, at a wavelength of 600 nm, is then measured at the start and at the end of the incubation period. Inhibition in a particular well is calculated as (Inhibition=1−ODtest/ODno treatment). The MIC value is the minimum concentration of antibacterial agent which gives 100% inhibition. Experiments are generally performed at least as triplicate biological replicates.
The CI is measured by first calculating the fractional inhibitory concentration (FIC) of the individual actives (e.g. “compound A” or “compound B”) in a combination product against a certain bacterial strain. This is calculated by dividing the minimum inhibitory concentration (MIC) of the active in a combination product by the minimum inhibitory concentration of the active alone.
The Combination Index (CI) is calculated by adding the FIC of the two actives together. CI value=FICCompound A+FICCompound B
A CI value of 1 means the combined effect of the two agents is additive. A CI value of less than 1 means that the two agents act synergistically. It is therefore understood that the lower the CI value, the better the synergistic effect of the combination product. For a drug combination to show synergistic effects, the CI value will typically be less than 1.
This study was conducted with the following strains: Pseudomonas aeruginosa (X11045). P. aeruginosa (X11045) was received form Statens Serum Institute.
The bacteria from cryopreserved stocks were grown on LB agar plates [G. Bertani, “Studies on lysogenesis. I. The mode of phage liberation by lysogenic Escherichia coli,” J. Bacteriol., vol. 62, no. 3, pp. 293-300, September 1951] and incubated overnight at 37° C.
One colony was transferred into 15 ml of cation-adjust Mueller Hinton broth (MH2) [J. H. Mueller and J. Hinton, “A Protein-Free Medium for Primary Isolation of the Gonococcus and Meningococcus,” Exp. Biol. Med., vol. 48, no. 1, pp. 330-333, October 1941] and incubated overnight at 37° C. shaken at 200 rpm.
Checkerboard Methods of Antimicrobial Combinations Synergy Determination • 1. Day 1. • Bacterial strains are isolated on agar plates and incubated overnight at 37° C. Pseudomonas aeruginosa (X11045) on LB agar. • 2. Day 2. • For each strain, one colony is transferred into 15 ml of Mueller Hinton broth (MHB) and incubated overnight at 37° C. shaken at 200 rpm. • 3. Day 3. • Fifty microliters of the O/N culture are inoculated to 5 ml of Mueller Hinton broth in 15 ml conical tubes and incubated for 5 hours at 37° C. shaken at 200 rpm. • 4. Dispense 150 μl of MHB in each well of the 12th column for positive and negative controls as shown above. • 5. Prepare each drug to Cmax×2 • a. Diminazene/Dibromopropamidine: • Make a series of 2-fold dilution as shown in the plate layout. Using the 12 channel pipet, dispense 75 μl of diminazene solution in each well so that the final volume will be 150 μl and the final concentration is as shown in the plate schematic above. • b. Tetracycline antibiotics: • Make a series of 2-fold dilution as shown in the plate layout. […]

E. Coli = assay: Checkerboard MIC / synergy determination (FIC, CI) against E. coli; type: cell-based, Escherichia coli; conditions: for MIC tetracycline (μg/ml) (combination): MIC of the tetracycline antibiotic in combination with diminazene; for CI value: combination of the tetracycline antibiotic with diminazene, CI < 1 = synergy; for FIC tetracycline compound: in combination with diminazene; for MIC: Escherichia coli
[2] = cited from earlier work
[3] = MIC of the tetracycline antibiotic in combination with dibromopropamidine
[4] = MIC of the tetracycline antibiotic in combination with diminazene, OD600 after 18 hours
[5] = combination of the tetracycline antibiotic with dibromopropamidine
[6] = combination of the tetracycline antibiotic with diminazene
[7] = tetracycline antibiotic alone, Table 2 (diminazene series)
[8] = tetracycline antibiotic alone, Table 3 (dibromopropamidine series)
[9] = diminazene alone, read-out: MIC diminazene
[10] = diminazene in combination with doxycycline hyclate
[11] = diminazene in combination with minocycline hydrochloride
[12] = diminazene in combination with tetracycline hydrochloride
[13] = in combination with doxycycline hyclate
[14] = in combination with minocycline hydrochloride
[15] = in combination with tetracycline hydrochloride
[16] = in combination with tigecycline hydrate

Molecule | MIC tetracycline (μg/ml) (combination) [1, 3] [µg/mL] | MIC tetracycline (μg/ml) (combination) [1, 4] [µg/mL] | CI value [1, 5] | CI value [1, 6] | synergy with diminazene (in words) [1] | FIC tetracycline compound [1] | FIC tetracycline [1] | MIC tetracycline compound [1, 8] [µg/mL] | MIC tetracycline (μg/ml) (combination) (E. Coli) [µg/mL] | CI value (E. Coli) | FIC tetracycline compound (E. Coli) | MIC tetracycline compound (E. Coli; tetracycline antibiotic alone) [µg/mL] | Protein binding (%) [2] | other results
C[C@H]1c2cccc(O)c2C(=O)C2=C(O)[C@]3(O)C(=O)C(C(N)=O)=C(O)[C@@H](N(C)C)[C@@H]3[C@@H](O)[C@@H]21 [Doxycycline hyclate] | 0.50 | 3.13 | 0.28 | 0.25 | strong synergy | 0.03 | 0.13 | 16.00 | 0.25 | 0.56 | 0.50 | 0.50 | 85% | MIC tetracycline [1, 7]: 25.00 µg/mL
CN(C)[C@@H]1C(O)=C(C(N)=O)C(=O)[C@@]2(O)C(O)=C3C(=O)c4c(O)cccc4[C@@](C)(O)[C@H]3C[C@@H]12.Cl [Tetracycline hydrochloride] | 2.00 | 4.00 | 0.63 | 0.50 | strong synergy | 0.13 | 0.25 |  | 0.50 | 2.00 | 1.00 |  |  | MIC ([1]; 18 h, tetracycline antibiotic alone, Table 2 (diminazene series), read-out: MIC tetracycline): 16 µg/mL; MIC ([1]; 18 h, tetracycline antibiotic alone, Table 3 (dibromopropamidine series), read-out: MIC tetracycline compound): 16 µg/mL; MIC (E. Coli; 18 h, tetracycline antibiotic alone, read-out: MIC tetracycline compound): 0.5 µg/mL
N=C(N)c1ccc(/N=N/Nc2ccc(C(=N)N)cc2)cc1 [diminazene, Diminazene aceturate] |  |  |  |  |  |  |  |  |  |  |  |  | 65-85% | MIC [1, 9]: 250 µg/mL; FIC dibromopropamidine ([1]; Table 2 (diminazene table), in combination with doxycycline hyclate): 0.13; FIC dibromopropamidine ([1]; Table 2 (diminazene table), in combination with minocycline hydrochloride): 0.13; FIC dibromopropamidine ([1]; Table 2 (diminazene table), in combination with tetracycline hydrochloride): 0.25; MIC diminazene (μg/ml) (combination) [1, 10]: 31.25 µg/mL; MIC diminazene (μg/ml) (combination) [1, 11]: 31.25 µg/mL; MIC diminazene (μg/ml) (combination) [1, 12]: 62.50 µg/mL; MIC (E. Coli; [9]): 20 µg/mL; MIC diminazene (μg/ml) (combination) (E. Coli; [10]): 1.25 µg/mL; MIC diminazene (μg/ml) (combination) (E. Coli; [11]): 5.00 µg/mL; MIC diminazene (μg/ml) (combination) (E. Coli; [12]): 20.00 µg/mL; MIC diminazene (μg/ml) (combination) (E. Coli; diminazene in combination with tigecycline hydrate): 2.50 µg/mL; FIC diminazene (E. Coli; [13]): 0.06; FIC diminazene (E. Coli; [14]): 0.25; FIC diminazene (E. Coli; [15]): 1.00; FIC diminazene (E. Coli; [16]): 0.13
N=C(N)c1ccc(OCCCOc2ccc(C(=N)N)cc2Br)c(Br)c1 [dibromopropamidine, Dibromopropamidine dihydrochloride] |  |  |  |  |  |  |  |  |  |  |  |  |  | MIC ([1]; dibromopropamidine alone, read-out: MIC dibromopropamidine): 10 µg/mL; MIC dibromopropamidine (μg/ml) (combination) ([1]; dibromopropamidine in combination with doxycycline hyclate): 2.50 µg/mL; MIC dibromopropamidine (μg/ml) (combination) ([1]; dibromopropamidine in combination with minocycline hydrochloride): 2.50 µg/mL; MIC dibromopropamidine (μg/ml) (combination) ([1]; dibromopropamidine in combination with tetracycline hydrochloride): 5.00 µg/mL; MIC dibromopropamidine (μg/ml) (combination) ([1]; dibromopropamidine in combination with tigecycline hydrate): 5.00 µg/mL; FIC dibromopropamidine [1, 13]: 0.25; FIC dibromopropamidine [1, 14]: 0.25; FIC dibromopropamidine [1, 15]: 0.50; FIC dibromopropamidine [1, 16]: 0.50
CN(C)c1ccc(O)c2c1C[C@H]1C[C@H]3[C@H](N(C)C)C(O)=C(C(N)=O)C(=O)[C@@]3(O)C(O)=C1C2=O.Cl [Minocycline hydrochloride] | 0.50 | 3.13 | 0.28 | 0.25 | strong synergy | 0.03 | 0.13 | 16.00 | 0.13 | 0.50 | 0.25 | 0.50 | 66% | synergy with dibromopropamidine (in words) [1]: Especially strong synergy; MIC tetracycline [1, 7]: 25.00 µg/mL
Doxycycline hyclate |  |  |  |  |  |  |  |  |  |  |  |  |  | synergy with dibromopropamidine (in words) [1]: Especially strong synergy
CN(C)c1cc(NC(=O)CNC(C)(C)C)c(O)c2c1C[C@H]1C[C@H]3[C@H](N(C)C)C(O)=C(C(N)=O)C(=O)[C@@]3(O)C(O)=C1C2=O [Tigecycline hydrate] | 0.50 |  | 0.52 |  |  | 0.02 |  | 32.0 | 0.25 | 0.38 | 0.25 | 1.00 | 80% | synergy with diminazene (in words) (E. Coli; combination with diminazene, Table 4): particularly good synergy
